Results from the NIST ThermoML archive (doi:10.1021/je200707b).
± gives the expanded uncertainty stated by the source.

Legend:
[1] = 101.33 kPa, Liquid; for viscosity: Falling or rolling sphere viscometry; for mass density: Vibrating tube method
[2] = refractive index (Na D-line) (dimensionless); conditions: 298.15 K; 101.33 kPa; Liquid; Standard Abbe refractometry

Row | viscosity ([1]; 293.15 K) | mass density ([1]; 293.15 K) | viscosity ([1]; 298.15 K) | mass density ([1]; 298.15 K) | viscosity ([1]; 303.15 K) | mass density ([1]; 303.15 K) | viscosity ([1]; 308.15 K) | mass density ([1]; 308.15 K) | viscosity ([1]; 313.15 K) | mass density ([1]; 313.15 K) | refractive index [2] | Structure (SMILES)
1 | 2.229 ± 0.061 mPa·s | 803.55 ± 0.37 kg/m3 | 1.975 ± 0.054 mPa·s | 799.55 ± 0.37 kg/m3 | 1.757 ± 0.048 mPa·s | 795.52 ± 0.37 kg/m3 | 1.568 ± 0.043 mPa·s | 791.44 ± 0.37 kg/m3 | 1.406 ± 0.039 mPa·s | 787.34 ± 0.37 kg/m3 | 1.3834 ± 0.0011 | CCCO [propan-1-ol]
2 | 0.588 ± 0.016 mPa·s | 791.28 ± 0.37 kg/m3 | 0.557 ± 0.015 mPa·s | 786.56 ± 0.37 kg/m3 | 0.519 ± 0.014 mPa·s | 781.83 ± 0.37 kg/m3 | 0.49 ± 0.013 mPa·s | 777.07 ± 0.37 kg/m3 | 0.462 ± 0.013 mPa·s | 772.29 ± 0.37 kg/m3 | 1.3265 ± 0.0011 | CO [methanol]
3 | 771.69 ± 71 mPa·s | 959.61 ± 0.42 kg/m3 | 546.35 ± 44 mPa·s | 956.44 ± 0.42 kg/m3 | 397.17 ± 28 mPa·s | 953.33 ± 0.42 kg/m3 | 294.59 ± 18 mPa·s | 950.15 ± 0.42 kg/m3 | 222.24 ± 12 mPa·s | 946.98 ± 0.42 kg/m3 | 1.4426 ± 0.0011 | CC(=O)O.CCCCN [butylammonium acetate]
4 | 1.241 ± 0.034 mPa·s | 789.54 ± 0.37 kg/m3 | 1.128 ± 0.031 mPa·s | 785.25 ± 0.37 kg/m3 | 1.029 ± 0.028 mPa·s | 780.93 ± 0.37 kg/m3 | 0.92 ± 0.025 mPa·s | 776.57 ± 0.37 kg/m3 | 0.842 ± 0.023 mPa·s | 772.18 ± 0.37 kg/m3 | 1.3594 ± 0.0011 | CCO [ethanol]
5 | 2.983 ± 0.082 mPa·s | 809.7 ± 0.38 kg/m3 | 2.617 ± 0.072 mPa·s | 805.9 ± 0.38 kg/m3 | 2.306 ± 0.063 mPa·s | 802.05 ± 0.37 kg/m3 | 2.04 ± 0.056 mPa·s | 798.17 ± 0.37 kg/m3 | 1.811 ± 0.05 mPa·s | 794.26 ± 0.37 kg/m3 | 1.3973 ± 0.0011 | CCCCO [butan-1-ol]
